Experimental data published in ChEMBL document CHEMBL6153135, “Rational Design of a Potent, Selective, and Metabolically Stable CDK9 Inhibitor to Counteract Osimertinib Resistance through Mcl-1 Suppression and Enhanced BRD4 Co-Targeting” (J Med Chem, 2025).
Activity calls are given as the source filed them. No cut-off for these calls is given here.

Columns and labels:
[1] = system: Osimertinib-resistant HCC827 cell; experiment: Inhibition of colony formation in human Osimertinib-resistant HCC827 cells at 12.5 nM measured after 14 days in presence of JQ1 by crystal violet staining based analysis; assay type: functional; settings: time 14.0 day
CDK9/cyclin T1 = CDK9/cyclin T1 (Homo sapiens, UniProt P50750); experiment: Inhibition of CDK9/cyclin T1 (unknown origin) preincubated for 10 mins followed by substrate/ATP measured after 60 mins by ADP-Glo assay; assay type: protein-complex assay
[2] = system: Osimertinib-resistant HCC827 cell; experiment: Inhibition of chromosome organisation in human Osimertinib-resistant HCC827 cells by KEGG analysis; assay type: functional, cell-based
NCI-H1299 = experiment: Anti-proliferative activity against human NCI-H1299 cells assessed as cell inhibition measured after 72 hrs by MTT assay; assay type: functional, cell-based; settings: NCI-H1299, 72 h
[3] = Metabolic stability in pig liver microsomes assessed as clearance measured for 5 to 60 mins by LC-MS/MS analysis; assay type: ADME, Sus scrofa, Microsome; settings: time 5-60 min, read-out: CLH
[4] = Metabolic stability in monkey liver microsomes assessed as half life measured for 5 to 60 mins by LC-MS/MS analysis; assay type: ADME, Macaca mulatta, Microsome; settings: rhesus monkey, time 5-60 min
[5] = system: Osimertinib-resistant NCI-H1975 cell; experiment: Induction of apoptosis in human Osimertinib-resistant NCI-H1975 cells assessed as viable cells at 0.5 uM incubated for 16 hrs by Annexin V-FITC/PI staining based flow cytometry (reference value: 89.4 %); assay type: functional; settings: read-out: Activity
[6] = system: Lung adenocarcinoma organoid; experiment: Anti-tumor activity against Osimertinib-resistant patient (#0085)-derived human Lung adenocarcinoma organoid assessed as inhibition of cell viability measured after 96 hrs; assay type: functional, tissue-based; settings: Neoplasm
[7] = Clearance in Sprague-Dawley rat at 2 mg/kg, iv; assay type: ADME, organism-based; settings: in vivo
[8] = system: Osimertinib-resistant NCI-H1975 cell; experiment: Anti-proliferative activity against human Osimertinib-resistant NCI-H1975 cells assessed as cell inhibition measured after 72 hrs in presence of 500 nM JQ1 by MTT assay; assay type: functional, cell-based
[9] = AUC (0 to t) in BALB/c mouse at 15 mg/kg, po; assay type: ADME, organism-based; settings: in vivo
[10] = system: Osimertinib-resistant HCC827 cell; experiment: Downregulation of c-Myc level in human Osimertinib-resistant HCC827 cells in presence of JQ1 by RNA-Seq analysis; assay type: functional, cell-based
[11] = Downregulation of c-Myc level in human Osimertinib-resistant HCC827 cells at 100 nM incubated for 12 hrs in presence of JQ1 by Western blot analysis relative to control; assay type: functional, Osimertinib-resistant HCC827 cell
[12] = target: Cyclin-dependent kinase 5/CDK5 activator 1 (Homo sapiens) (UniProt Q00535+Q15078); experiment: Inhibition of CDK5/p35NCK (unknown origin) at 100 nM preincubated for 10 mins followed by substrate/ATP measured after 60 mins by ADP-Glo assay relative to control; assay type: protein-complex assay; settings: time 70.0 min
[13] = Half life in BALB/c mouse at 15 mg/kg, po; assay type: ADME, organism-based; settings: in vivo
[14] = Cmax in Sprague-Dawley rat at 20 mg/kg, po; settings: in vivo
[15] = Selectivity ratio of IC50 for anti-proliferative activity against human NCI-H1975 cells to IC50 for anti-proliferative activity against human NCI-H1975 cells in presence of JQ1; assay type: functional
[16] = system: Lung adenocarcinoma organoid; experiment: Anti-tumor activity against Osimertinib-resistant patient (#0243)-derived human Lung adenocarcinoma organoid assessed as inhibition of cell viability measured after 96 hrs relative to control; assay type: functional, Neoplasm
[17] = Toxicity in BALB-c mouse xenografted with human NCI-H1975 cells assessed as decrease in body weight at 5 mg/kg, iv; assay type: organism-based; settings: in vivo
[18] = Drug concentration in plasma of BALB-c nude mouse xenografted with human NCI-H1975 cells at 15 mg/kg, iv measured after 30 mins by LC-MS/MS analysis; assay type: ADME, organism-based
[19] = C0 in Sprague-Dawley rat at 2 mg/kg, iv; settings: in vivo
[20] = Metabolic stability in mouse liver microsomes assessed as clearance measured for 5 to 60 mins by LC-MS/MS analysis; assay type: ADME, Microsome; settings: time 5-60 min, read-out: CLH
HCC827 = experiment: Anti-proliferative activity against human HCC827 cells assessed as cell inhibition measured after 72 hrs in presence of 500 nM JQ1 by MTT assay; assay type: functional, cell-based; settings: HCC827, 72 h
[21] = Cmax in BALB/c mouse at 15 mg/kg, po; settings: in vivo
NCI-H1975 [22] = experiment: Anti-proliferative activity against human NCI-H1975 cells assessed as cell inhibition measured after 72 hrs by MTT assay; assay type: functional, cell-based; settings: NCI-H1975, 72 h
[23] = target: Glycogen synthase kinase-3 alpha (Homo sapiens) (UniProt P49840); experiment: Inhibition of GSK3-alpha (unknown origin) at 100 nM preincubated for 10 mins followed by substrate/ATP measured after 60 mins by ADP-Glo assay relative to control; settings: time 70.0 min
NCI-H1975 [24] = experiment: Anti-proliferative activity against human NCI-H1975 cells assessed as cell inhibition measured after 72 hrs in presence of 250 nM JQ1 by MTT assay; assay type: functional, cell-based; settings: NCI-H1975, 72 h
[25] = system: Osimertinib-resistant NCI-H1975 cell; experiment: Anti-proliferative activity against human Osimertinib-resistant NCI-H1975 cells assessed as cell inhibition measured after 72 hrs in presence of 100 nM JQ1 by MTT assay; assay type: functional, cell-based
[26] = system: Osimertinib-resistant NCI-H1975 cell; experiment: Induction of apoptosis in human Osimertinib-resistant NCI-H1975 cells assessed as early apoptotic cells at 0.5 uM incubated for 16 hrs by Annexin V-FITC/PI staining based flow cytometry (reference value: 8.02 %); assay type: functional
[27] = target: Cyclin-dependent kinase 9 (Homo sapiens) (UniProt P50750); experiment: Inhibition of CDK9 in human Osimertinib-resistant HCC827 cells assessed as decrease in Mcl-1 mRNA level in presence of JQ1 by RNA-Seq analysis; assay type: cell-based; settings: Osimertinib-resistant HCC827 cell
[28] = target: Cyclin-dependent kinase 9 (Homo sapiens) (UniProt P50750); experiment: Inhibition of CDK9 in human Osimertinib-resistant HCC827 cells assessed as decrease in Mcl-1 level at 100 to 500 nM incubated for 12 hrs by Western blot analysis; assay type: cell-based; settings: Osimertinib-resistant HCC827 cell, dose 100-500 nM
[29] = Toxicity in BALB-c nude mouse xenografted with human NCI-H1975 cells assessed as pathological damage in kidney at 15 mg/kg, iv administered on every two days by H and E staining based analysis; assay type: organism-based; settings: in vivo
[30] = Toxicity in BALB-c nude mouse xenografted with human NCI-H1975 cells assessed as pathological damage in heart at 15 mg/kg, iv administered on every two days by H and E staining based analysis; assay type: organism-based; settings: in vivo
[31] = system: Lung adenocarcinoma organoid; experiment: Anti-tumor activity against patient (#2514)-derived human Lung adenocarcinoma organoid assessed as inhibition of cell viability measured after 96 hrs; assay type: functional, tissue-based; settings: Neoplasm
[32] = Toxicity in BALB-c nude mouse xenografted with human NCI-H1975 cells assessed as pathological damage in spleen at 15 mg/kg, iv administered on every two days by H and E staining based analysis; assay type: organism-based; settings: in vivo
[33] = Anti-proliferative activity against human Osimertinib-resistant HCC827 cells assessed as cell inhibition measured after 72 hrs by MTT assay; assay type: functional, cell-based
[34] = Metabolic stability in dog liver microsomes assessed as half life measured for 5 to 60 mins by LC-MS/MS analysis; assay type: ADME, Canis lupus familiaris, Microsome; settings: time 5-60 min
[35] = Oral bioavailability in BALB/c mouse at 15 mg/kg; assay type: ADME, organism-based; settings: in vivo

Chain of Cyclin-dependent kinase 9 (Homo sapiens) (P50750 whole entry): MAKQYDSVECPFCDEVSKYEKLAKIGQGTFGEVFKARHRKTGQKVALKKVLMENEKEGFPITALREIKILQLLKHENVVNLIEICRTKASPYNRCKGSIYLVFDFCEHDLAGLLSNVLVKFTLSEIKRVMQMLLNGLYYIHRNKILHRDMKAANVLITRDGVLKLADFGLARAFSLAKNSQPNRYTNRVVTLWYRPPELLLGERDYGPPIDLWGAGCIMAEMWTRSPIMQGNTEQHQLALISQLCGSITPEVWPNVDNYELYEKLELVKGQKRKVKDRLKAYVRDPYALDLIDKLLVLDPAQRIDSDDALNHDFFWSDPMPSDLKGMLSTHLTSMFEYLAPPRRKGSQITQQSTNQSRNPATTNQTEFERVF
Chain of CDK9/cyclin T1 (O60563 whole entry): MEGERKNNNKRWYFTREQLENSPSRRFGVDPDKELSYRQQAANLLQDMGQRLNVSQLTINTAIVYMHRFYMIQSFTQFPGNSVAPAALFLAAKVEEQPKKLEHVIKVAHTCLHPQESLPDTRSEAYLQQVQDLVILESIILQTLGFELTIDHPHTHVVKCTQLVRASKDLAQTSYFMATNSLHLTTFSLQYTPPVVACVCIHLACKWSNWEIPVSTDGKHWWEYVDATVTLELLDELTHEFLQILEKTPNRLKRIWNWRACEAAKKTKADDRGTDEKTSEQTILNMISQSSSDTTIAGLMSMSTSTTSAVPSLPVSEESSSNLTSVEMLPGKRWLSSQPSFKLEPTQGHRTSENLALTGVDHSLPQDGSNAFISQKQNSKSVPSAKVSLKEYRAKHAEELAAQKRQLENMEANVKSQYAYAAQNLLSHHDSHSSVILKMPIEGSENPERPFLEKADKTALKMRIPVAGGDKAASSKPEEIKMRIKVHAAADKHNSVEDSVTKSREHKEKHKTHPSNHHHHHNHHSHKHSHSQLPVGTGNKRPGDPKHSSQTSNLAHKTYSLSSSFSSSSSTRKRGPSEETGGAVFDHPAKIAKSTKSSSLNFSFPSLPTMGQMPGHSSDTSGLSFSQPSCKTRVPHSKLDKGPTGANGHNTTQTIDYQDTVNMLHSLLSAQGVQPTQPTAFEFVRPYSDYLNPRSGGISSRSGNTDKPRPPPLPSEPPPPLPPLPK
Chain of CDK9/cyclin T1 (P50750 whole entry): as the sequence (P50750 whole entry) above
Chain of Glycogen synthase kinase-3 alpha (Homo sapiens) (P49840 2-483 limits assumed): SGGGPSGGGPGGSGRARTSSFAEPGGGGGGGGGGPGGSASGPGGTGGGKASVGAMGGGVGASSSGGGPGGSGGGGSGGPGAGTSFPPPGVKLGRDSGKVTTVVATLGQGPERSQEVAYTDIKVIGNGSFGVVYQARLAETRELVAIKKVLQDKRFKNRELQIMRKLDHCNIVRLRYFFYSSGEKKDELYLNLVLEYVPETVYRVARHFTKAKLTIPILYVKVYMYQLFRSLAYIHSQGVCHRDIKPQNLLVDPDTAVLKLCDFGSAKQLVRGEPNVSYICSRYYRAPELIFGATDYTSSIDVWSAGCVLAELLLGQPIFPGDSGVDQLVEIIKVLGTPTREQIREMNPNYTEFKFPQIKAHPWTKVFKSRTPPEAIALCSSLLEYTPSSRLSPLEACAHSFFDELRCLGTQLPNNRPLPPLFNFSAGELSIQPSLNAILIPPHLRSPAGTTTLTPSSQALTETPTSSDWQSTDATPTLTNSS
Chain of Cyclin-dependent kinase 5/CDK5 activator 1 (Homo sapiens) (Q00535 whole entry): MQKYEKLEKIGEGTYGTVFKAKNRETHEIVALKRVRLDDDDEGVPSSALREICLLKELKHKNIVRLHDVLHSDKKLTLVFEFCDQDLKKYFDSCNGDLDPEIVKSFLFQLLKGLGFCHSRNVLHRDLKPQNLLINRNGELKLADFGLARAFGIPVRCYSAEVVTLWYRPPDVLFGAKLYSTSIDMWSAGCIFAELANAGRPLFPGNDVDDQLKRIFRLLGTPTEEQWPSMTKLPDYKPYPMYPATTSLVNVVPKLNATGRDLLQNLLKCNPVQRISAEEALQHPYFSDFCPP
Chain of Cyclin-dependent kinase 5/CDK5 activator 1 (Homo sapiens) (Q15078 99-307 partner limits assumed): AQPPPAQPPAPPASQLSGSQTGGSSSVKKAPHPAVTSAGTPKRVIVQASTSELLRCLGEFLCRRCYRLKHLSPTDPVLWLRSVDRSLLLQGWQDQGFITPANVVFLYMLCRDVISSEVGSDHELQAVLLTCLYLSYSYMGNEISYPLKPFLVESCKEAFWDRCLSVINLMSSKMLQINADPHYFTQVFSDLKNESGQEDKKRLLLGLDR

IC50 (CDK9/cyclin T1): 1.2 nM
IC50 (NCI-H1299): 70 nM
microsomal CLint [3]: 35.3 µL/min/mg
half-life [4]: 0.985 h
IC50 [6]: 44.7 nM
clearance [7]: 13.3 mL/min/kg
IC50 [8]: 4.3 nM
AUC(0-t) [9]: 754 ng·h/mL
inhibition [12]: 7.24%
half-life [13]: 3.5 h
Cmax [14]: 775.6 ng/mL
concentration at 0.5 h [18]: 2450 ng/mL
C0 [19]: 2527 ng/mL
microsomal CLint [20]: 21.6 µL/min/mg
IC50 (HCC827): 9.7 nM
Cmax [21]: 344.1 ng/mL
IC50 (NCI-H1975 [22]): 110 nM
inhibition [23]: 97.5%
IC50 (NCI-H1975 [24]): 29.7 nM
IC50 [25]: 26.8 nM
inhibition [27]: Active
inhibition [28]: Active
IC50 [31]: < 50 nM
half-life [34]: 1.25 h
bioavailability [35]: 25.8%
Structure (SMILES): CC(=O)N1CCC(NC(=O)c2ccc3cc2OCCCCCCOc2cc(ccc2F)-c2nc(ncc2F)N3)CC1
inhibition [1]: Active
inhibition [2]: Active
viability at 0.5 µM [5]: 63.1%
Activity [10]: Active
Activity [11]: 100%
Ratio IC50 [15]: 10
Imax [16]: >98%
Activity [17]: Non-toxic
Activity [26]: 25.4%
Activity [29]: Non-toxic
Activity [30]: Non-toxic
Activity [32]: Non-toxic
IC50 [33]: 63.9 nM
